Test results as given in patent publication US20090176792A1, “SUBSTITUTED DIBENZHYDRYLPIPERAZINES” (AUSPEX PHARMACEUTICALS, INC., priority 2008, published 2009).

Columns and labels:
[1] = In vitro liver microsomal stability assay; conditions: human liver microsomes 1 mg per mL, 1 μM, 37° C., vs non-isotopically enriched drug
Method: Test compounds were prepared as solutions in 20% acetonitrile-water and added to the assay mixture (final assay concentration 1 μM) and incubated at 37° C. Final concentration of acetonitrile in the assay should be <1%. Aliquots (50 μL) were taken out at times 0, 15, 30, 45, and 60 min, and diluted with ice cold acetonitrile (200 μL) to stop the reactions. Samples were centrifuged at 12,000 RPM for 10 min to precipitate proteins. Supernatants were transferred to micro centrifuge tubes and stored for LC/MS/MS analysis of the degradation half-life of the test compounds.

cytochrome P450 CYP2D6 = cytochrome P450 CYP2D6 (Homo sapiens, UniProt P10635); conditions: cited from earlier work
Sequence of cytochrome P450 CYP2D6 (P10635 whole entry): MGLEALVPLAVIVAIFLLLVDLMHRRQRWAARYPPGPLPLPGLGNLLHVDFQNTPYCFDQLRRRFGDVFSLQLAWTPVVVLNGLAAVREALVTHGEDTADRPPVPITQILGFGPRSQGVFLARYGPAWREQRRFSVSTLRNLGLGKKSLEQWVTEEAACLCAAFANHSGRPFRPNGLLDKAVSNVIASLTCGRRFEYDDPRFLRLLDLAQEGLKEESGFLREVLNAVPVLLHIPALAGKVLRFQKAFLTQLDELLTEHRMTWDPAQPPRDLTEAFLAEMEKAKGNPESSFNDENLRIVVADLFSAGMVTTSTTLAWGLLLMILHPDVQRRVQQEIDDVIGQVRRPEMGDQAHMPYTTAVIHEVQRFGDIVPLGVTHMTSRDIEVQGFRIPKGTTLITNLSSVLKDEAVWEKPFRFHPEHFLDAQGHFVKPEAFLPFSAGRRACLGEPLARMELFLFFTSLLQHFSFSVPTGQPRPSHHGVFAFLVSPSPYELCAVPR

% Increase of HLM degradation half-life ([1]; column 5-15%) | % Increase of HLM degradation half-life ([1]; column 0%-5%) | Structure (SMILES) | inhibition of cytochrome P450 CYP2D6 (cytochrome P450 CYP2D6)
+ (5-15%) | – | [2H]C([2H])([2H])N1CCN(C(c2ccccc2)c2ccccc2)CC1 [Example 2, d3-1-Benzhydryl-4-methylpiperazine] | –
– | + (0%-5%) | CN1CCN(C(c2ccccc2)c2ccccc2)CC1 [Example 1, 1-benzhydryl-4-methylpiperazine] | inhibit
